The assay concerns the target T1, human AMPK α1β1γ1 enzyme (Homo sapiens, UniProt Q13131+Q9Y478).
T1 construct: purchased Carna Biosciences, Inc
The assay is described as follows: Evaluation of AMPK activator, Test Example 1 (mobility-shift kinase assay, FL-Peptide 7). Format: biochemical. Conditions: for EC150 (compound concentration showing 150% relative to the control (100%)): human AMPK α1β1γ1, 25° C., 2 hours, 0.2 mM ATP final; for Emax: human AMPK α1β1γ1, relative to control (100%), read-out: Emax (maximum rate of increase in activity within the measurement range). The protocol:
The obtained liquid was left to stand for 10 minutes.
The obtained liquid was allowed to react at 25° C. for 2 hours, and 10 μl of 20 mM EDTA was then added thereto to stop the reaction.
To detect phosphorylated fluorescent substrates, the reaction liquid was applied to a measuring device, LabChip EZ Reader II manufactured by Caliper Life Science, Inc., for detecting fluorescence by using differences in mobility due to differences in charge. The setting conditions for the device were pressure, −1.5 PSI; upstream voltage, −2250 V; downstream voltage, −400 V; post sample buffer sip time, 40 seconds; final delay, 120 seconds; and peak order, Product First.
A conversion rate was calculated from the peak heights of the resulting substrate and product. The conversion rate when not containing a compound was used as a control, and a concentration dependent curve was made by plotting the rate of increase in activity to the control at each concentration of a compound.

41 compounds from patent US10093670B2, “Azabenzimidazole derivative having AMPK-activating activity” (Shionogi & Co., Ltd., priority 2011, dated 2018) can be followed below.

As usually defined, the Emax is the size of the effect at its maximum, as opposed to the concentration needed.

T1 sequence (Q13131 10-559 limits assumed): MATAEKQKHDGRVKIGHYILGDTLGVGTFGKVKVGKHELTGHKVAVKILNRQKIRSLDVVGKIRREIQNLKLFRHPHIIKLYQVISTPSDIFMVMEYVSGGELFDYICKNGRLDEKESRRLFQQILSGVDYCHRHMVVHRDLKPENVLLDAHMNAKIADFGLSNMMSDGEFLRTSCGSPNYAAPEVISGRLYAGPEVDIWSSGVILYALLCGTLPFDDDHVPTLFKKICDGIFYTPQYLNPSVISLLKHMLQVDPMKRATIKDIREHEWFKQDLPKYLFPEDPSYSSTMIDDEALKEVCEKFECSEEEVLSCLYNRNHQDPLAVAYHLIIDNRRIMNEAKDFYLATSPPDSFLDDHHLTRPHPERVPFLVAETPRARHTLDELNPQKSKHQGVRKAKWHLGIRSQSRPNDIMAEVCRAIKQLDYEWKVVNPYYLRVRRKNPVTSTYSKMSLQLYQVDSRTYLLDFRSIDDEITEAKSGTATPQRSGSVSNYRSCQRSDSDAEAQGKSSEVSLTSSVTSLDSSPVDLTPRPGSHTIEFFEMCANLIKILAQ
T1 sequence (Q9Y478 whole entry): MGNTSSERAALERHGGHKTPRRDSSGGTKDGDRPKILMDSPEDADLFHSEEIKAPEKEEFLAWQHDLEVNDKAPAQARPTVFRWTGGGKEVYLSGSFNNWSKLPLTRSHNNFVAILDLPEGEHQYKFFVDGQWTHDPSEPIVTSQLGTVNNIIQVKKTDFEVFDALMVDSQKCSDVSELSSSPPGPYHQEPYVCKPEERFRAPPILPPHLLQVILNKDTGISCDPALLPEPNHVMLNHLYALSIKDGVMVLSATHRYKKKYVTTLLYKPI
T1 sequence (P54619 whole entry partner): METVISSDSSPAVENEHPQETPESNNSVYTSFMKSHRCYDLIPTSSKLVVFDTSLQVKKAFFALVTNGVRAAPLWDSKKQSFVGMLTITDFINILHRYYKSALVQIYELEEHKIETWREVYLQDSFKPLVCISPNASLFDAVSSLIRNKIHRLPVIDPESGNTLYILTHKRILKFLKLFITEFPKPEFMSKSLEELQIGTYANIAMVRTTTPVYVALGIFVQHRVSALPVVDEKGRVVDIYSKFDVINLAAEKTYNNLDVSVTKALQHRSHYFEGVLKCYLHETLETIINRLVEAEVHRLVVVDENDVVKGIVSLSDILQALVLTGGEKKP

With `O=C(O)CSc1nc2nc(-c3ccc(N4CCOCC4)cc3)c(Cl)cc2[nH]1` [Compound I-1-4], the “EC150 (compound concentration showing 150% relative to the control (100%))” value was 160 nM and the Emax is 283%. For `O=C(O)COc1nc2nc(-c3ccc(N4CCOCC4)cc3)c(Cl)cc2[nH]1` [Compound I-1-10] the same measures were 390 nM and 270%. As for `O=C(O)CN1CCC(Oc2nc3nc(-c4ccc(N5CCOCC5)cc4)c(Cl)cc3[nH]2)CC1.O=CO` [Compound I-1-11], the “EC150 (compound concentration showing 150% relative to the control (100%))” value came out at 2100 nM and the Emax was 238%. The like results for `Oc1cc(COc2nc3nc(-c4ccc(N5CCOCC5)cc4)c(Cl)cc3[nH]2)on1` [Compound I-1-12] were, in that order, 320 nM and 263%. With `O=C(COc1nc2nc(-c3ccc(N4CCOCC4)cc3)c(Cl)cc2[nH]1)N1CCC(F)(F)CC1` [Compound I-1-21], the “EC150 (compound concentration showing 150% relative to the control (100%))” value was determined as 730 nM and the Emax was 284%.

With `CN1CCC(Oc2nc3nc(-c4ccc(N5CCOCC5)cc4)c(Cl)cc3[nH]2)CC1` [Compound I-1-25], the “EC150 (compound concentration showing 150% relative to the control (100%))” value worked out at 3100 nM and the Emax came to 226%. In the case of `CC(C#N)Oc1nc2nc(-c3ccc(N4CCOCC4)cc3)c(Cl)cc2[nH]1` (stereo not drawn) [Compound I-1-27], the “EC150 (compound concentration showing 150% relative to the control (100%))” value is 310 nM and the Emax is 226%. On to `CC(Oc1nc2nc(-c3ccc(N4CCOCC4)cc3)c(Cl)cc2[nH]1)c1noc(=O)[nH]1` (stereo not drawn) [Compound I-1-28], for which the “EC150 (compound concentration showing 150% relative to the control (100%))” value was 210 nM and the Emax was 231%. With `CS(=O)(=O)N1CCC(Oc2nc3nc(-c4ccc(N5CCOCC5)cc4)c(Cl)cc3[nH]2)CC1` [Compound I-1-32], the “EC150 (compound concentration showing 150% relative to the control (100%))” value is reported as 200 nM and the Emax came out at 280%. The like results for `CC(Oc1nc2nc(-c3ccc(N4CCOCC4)cc3)c(Cl)cc2[nH]1)C(N)=O` (stereo not drawn) [Compound I-1-37] were, in that order, 910 nM and 228%.

With `CC(Sc1nc2nc(-c3ccc(N4CCOCC4)cc3)c(Cl)cc2[nH]1)C(=O)O` (stereo not drawn) [Compound I-1-39], the “EC150 (compound concentration showing 150% relative to the control (100%))” value was 160 nM and the Emax was 258%. The like results for `CC(C)(Sc1nc2nc(-c3ccc(N4CCOCC4)cc3)c(Cl)cc2[nH]1)C(=O)O` [Compound I-1-57] were, in that order, 140 nM and 277%. For `CC(Cc1nc2nc(-c3ccc(N4CCOCC4)cc3)c(Cl)cc2[nH]1)C(=O)O` (stereo not drawn) [Compound I-1-62] the same measures were 540 nM and 228%. In the case of `O=C1CCC(Oc2nc3nc(-c4ccc(N5CCOCC5)cc4)c(Cl)cc3[nH]2)CN1` (stereo not drawn) [Compound I-1-68], the “EC150 (compound concentration showing 150% relative to the control (100%))” value turned out to be 4900 nM and the Emax stood at 174%.

Consider `O=C(O)[C@H]1CC[C@H](Oc2nc3nc(-c4ccc(-c5ccccc5)cc4)c(Cl)cc3[nH]2)CC1` [Compound I-2-30], for which the “EC150 (compound concentration showing 150% relative to the control (100%))” value worked out at 650 nM and the Emax amounted to 178%. For `NC(=O)[C@H]1CC[C@H](Oc2nc3nc(-c4ccc(N5CCOCC5)cc4)c(Cl)cc3[nH]2)CC1` [Compound I-2-33], the “EC150 (compound concentration showing 150% relative to the control (100%))” value came out at 70 nM and the Emax stood at 236%. With `O=C(O)C[C@H]1CC[C@H](Oc2nc3nc(-c4ccc(N5CCOCC5)cc4)c(Cl)cc3[nH]2)CC1` [Compound I-2-40], the “EC150 (compound concentration showing 150% relative to the control (100%))” value came out at 51 nM and the Emax is 293%. For `CC(=O)NC1CC=C(c2ccc(-c3nc4nc(O[C@H]5CC[C@H](C(=O)O)CC5)[nH]c4cc3Cl)cc2)CC1` (stereo partly drawn) [Compound I-2-58] the same measures were 650 nM and 169%.

`CC(=O)N1CC=C(c2ccc(-c3nc4nc(O[C@H]5CC[C@H](C(=O)O)CC5)[nH]c4cc3Cl)cc2)CC1` [Compound I-2-59]: the “EC150 (compound concentration showing 150% relative to the control (100%))” value came to 2300 nM and the Emax came to 181%.

For `O=C(O)[C@H]1CC[C@H](Oc2nc3nc(-c4ccc(-c5ccccc5O)cc4)c(Cl)cc3[nH]2)CC1` [Compound I-2-60], the “EC150 (compound concentration showing 150% relative to the control (100%))” value is 49 nM and the Emax turned out to be 205%. The like results for `O=C(c1ccc(-c2ccc(-c3nc4nc(O[C@H]5CC[C@H](C(=O)O)CC5)[nH]c4cc3Cl)cc2)cc1)N1CCOCC1` [Compound I-2-61] were, in that order, 72 nM and 189%.

As to `CN(C)C(=O)N1CC(Oc2nc3nc(-c4ccc(C5=CCC(C(=O)O)CC5)cc4)c(Cl)cc3[nH]2)C1` (stereo not drawn) [Compound I-2-71], the “EC150 (compound concentration showing 150% relative to the control (100%))” value worked out at 2400 nM and the Emax is 193%.

With `O=C(O)C[C@H]1CC[C@H](Oc2nc3nc(-c4ccc(C5=CCOCC5)cc4)c(Cl)cc3[nH]2)CC1` [Compound I-2-85], the “EC150 (compound concentration showing 150% relative to the control (100%))” value is given as 18 nM and the Emax came out at 255%.

On to `CC(Oc1nc2nc(-c3ccc(N4CCOCC4)cc3)c(Cl)cc2[nH]1)[C@H]1CC[C@H](C(=O)O)CC1` (stereo partly drawn) [Compound I-2-88], for which the “EC150 (compound concentration showing 150% relative to the control (100%))” value was determined as 65 nM and the Emax turned out to be 288%. For the compound `CC(Oc1nc2nc(-c3ccc(C4=CCC(C(=O)O)CC4)cc3)c(Cl)cc2[nH]1)c1ccccn1` (stereo not drawn) [Compound I-2-104], the “EC150 (compound concentration showing 150% relative to the control (100%))” value came out at 6400 nM and the Emax is 161%. For `CC(C)(COc1nc2nc(-c3ccc(N4CCOCC4)cc3)c(Cl)cc2[nH]1)C(=O)O` [Compound I-2-109] the same measures were 250 nM and 212%. As to `CC(Oc1nc2nc(-c3ccc(N4CCCC4)cc3)c(Cl)cc2[nH]1)c1noc(=O)[nH]1` (stereo not drawn) [Compound I-2-114], the “EC150 (compound concentration showing 150% relative to the control (100%))” value amounted to 49 nM and the Emax worked out at 215%. The like results for `O=C(O)C1(COc2nc3nc(-c4ccc(N5CCOCC5)cc4)c(Cl)cc3[nH]2)CC1` [Compound I-2-116] were, in that order, 130 nM and 229%. For `O=C(O)[C@H]1C[C@H](Oc2nc3nc(-c4ccc(N5CCOCC5)cc4)c(Cl)cc3[nH]2)C1` [Compound I-2-118], the Emax came to 194%. In the case of `CC(Oc1nc2nc(-c3ccc(N4CCOCC4)cc3)c(Cl)cc2[nH]1)C(C)(C)C(=O)O` (stereo not drawn) [Compound I-2-121], the “EC150 (compound concentration showing 150% relative to the control (100%))” value is reported as 160 nM and the Emax amounted to 258%. On to `CN(CCO)C(=O)N1CCC(Oc2nc3nc(-c4ccc(C5=CCC(C(=O)O)CC5)cc4)c(Cl)cc3[nH]2)CC1` (stereo not drawn) [Compound I-3-2], for which the “EC150 (compound concentration showing 150% relative to the control (100%))” value is reported as 1.4 nM and the Emax stood at 182%. The like results for `CN(C)C(=O)[C@H]1C[C@@H](Oc2nc3nc(-c4ccc(C5=CCC(C(=O)O)CC5)cc4F)c(Cl)cc3[nH]2)C1` (stereo partly drawn) [Compound I-3-3] were, in that order, 19 nM and 271%. For `CCC(Oc1nc2nc(-c3ccc(N4CCOCC4)cc3)c(Cl)cc2[nH]1)C(=O)O` (stereo not drawn) [Compound I-3-11] the same measures were 61 nM and 240%.

Turning to `Clc1cc2[nH]c(OC3CCOCC3)nc2nc1-c1ccc(N2CCOCC2)cc1` [Compound I-3-12], the “EC150 (compound concentration showing 150% relative to the control (100%))” value is listed as 21 nM and the Emax turned out to be 211%. The like results for `CC(Oc1nc2nc(-c3ccc(C4=CCC(C(=O)O)CC4)cc3)c(Cl)cc2[nH]1)C(N)=O` (stereo not drawn) [Compound I-3-14] were, in that order, 130 nM and 232%. The like results for `CC(C)(C(N)=O)C1CCC(Oc2nc3nc(-c4ccc(N5CCOCC5)cc4)c(Cl)cc3[nH]2)CC1` (stereo not drawn) [Compound I-3-25] were, in that order, 230 nM and 210%. For `O=C(O)C1CC=C(c2ccc(-c3nc4nc(OC5CCOCC5)[nH]c4cc3Cl)cc2)CC1` (stereo not drawn) [Compound I-3-26] the same measures were 68 nM and 221%. As to `CC(C)C(Oc1nc2nc(-c3ccc(N4CCOCC4)cc3)c(Cl)cc2[nH]1)C(=O)O` (stereo not drawn) [Compound I-3-27], the “EC150 (compound concentration showing 150% relative to the control (100%))” value is reported as 280 nM and the Emax was found to be 228%. Take `CC(=O)N1CC=C(c2ccc(-c3nc4nc(OC5CCC(C(C)(C)C(=O)O)CC5)[nH]c4cc3Cl)cc2)CC1` (stereo not drawn) [Compound I-3-39]: the “EC150 (compound concentration showing 150% relative to the control (100%))” value was 5.1 nM and the Emax turned out to be 286%. The like results for `CC(C)(C(=O)O)C1CCC(Oc2nc3nc(-c4ccc(N5CCCC5)cc4)c(Cl)cc3[nH]2)CC1` (stereo not drawn) [Compound I-3-44] were, in that order, 7.6 nM and 275%. For `CCC(Oc1nc2nc(-c3ccc(C4=CCC(NC(C)=O)CC4)cc3)c(Cl)cc2[nH]1)C(N)=O` (stereo not drawn) [Compound I-3-50] the same measures were 160 nM and 228%.
